Measured values reported in patent US20230330254A1 (Regeneron Pharmaceuticals, Inc., priority 2022, published 2023).
*1 amine or outer side, *2 acyl side, *3 side chain or, on linkers, in order; H or OH if unused. Where a SMILES comes first, the peptide text is derived from it. [ ]: non-standard residue; d: D form. The star is where a group is joined. Bip(2'-Et-4'-O(CH2)4NH2) = CCc1cc(OCCCCN[*:3])ccc1-c1ccc(C[C@H](N[*:1])C(=O)[*:2])cc1; Bip(2'-Et,4'-O(CH2)4NH2) = CCc1cc(OCCCCN)ccc1-c1ccc(C[C@H](N)C(=O)O)cc1; Malonyl(2,2-Me2,histaminyl) = CC(C)(C(=O)NCCc1cnc[nH]1)C(=O)*; X7 = O=C(NCCOCCOCCOCCOC(=O)*)OC[C@@H]1[C@@H]2CCC#CCC[C@@H]21; Nva(5-(3,5-Me2Ph)) = Cc1cc(C)cc(CCC[C@H](N)C(=O)O)c1; Ala(1H-tetrazol-5-yl) = N[C@@H](Cc1nnn[nH]1)C(=O)O; αMePhe(2-F) = C[C@](N)(Cc1ccccc1F)C(=O)O; X6 = CC(C)(C(=O)NO)C(=O)*

What was measured:
[1] = system: HEK293/CRE-Luc cells; assay: Luciferase reporter assay, HEK293/CRE-Luc cells without GLP1R (Example 17); assay type: cell-based, human; conditions: HEK293/CRE-Luc cells without hGLP1R, payloads and linker-payloads; for EC50: read-out: EC50
Excerpt: (§1) To test the activity of GLP1R agonist payloads, GLP1R agonist linker-payloads (LPs), and anti-GLP1R antibody tethered drug conjugates (ATDCs) of the invention, a cell-based cAMP responsive luciferase reporter assay was developed. To generate the assay cell line, the firefly luciferase gene was placed under the control of a cAMP response element (CRE) located upstream of a minimal promoter and transfected into HEK293 cells and referred to herein as HEK293/CRE-Luc cells.
(§2) Three-fold serial dilutions of free payloads or LPs were prepared in 100% DMSO, transferred to fresh assay media, and added to the cells at a final constant DMSO concentration of 0.2%. The last well in the plate served as a blank control containing only the assay media and 0.2% DMSO (untreated well) and was plotted as a continuation of the 3-fold serial dilution. Four to six hours later, luciferase activity was determined after the addition of One-Glo™ reagent (Promega, Cat #E6130) to each well. Relative light units (RLUs) were measured on an Envision luminometer (PerkinElmer) and EC50 values were determined using a four-parameter logistic equation over a 12-point dose response curve (GraphPad Prism). The signal to noise (S/N) was determined by taking the ratio of the highest RLU on the dose response curve to the RLU in the untreated wells. Data was generated across several experiments (A-E) with M2361 serving as a reference standard in each experiment to calculate the payload relative potency ((M2361 EC50/payload EC50)*100)) and relative S/N ((payload SN/M2361 SN)*100)).

[2] = target: T1, human GLP1R (Homo sapiens, UniProt P43220); assay: Luciferase reporter assay, HEK293/CRE-Luc/hGLP1R (Example 17); assay type: cell-based; set-up: engineered to express full-length human GLP1R, cynomolgus GLP1R; expressed in transfected cells; host or cells: HEK293/CRE-Luc; conditions: HEK293/CRE-Luc/hGLP1R; for S/N: highest RLU / RLU of untreated wells; for EC50: payloads and linker-payloads, experiments A-E, M2361 repeated in each, read-out: EC50; for Relative Potency (% M2361 EC50) / Relative Signal:Noise (% M2361): relative to M2361 of the same experiment
Excerpt: as §1, §2

[3] = target: T1, human GLP1R; assay: Human GLP1R cAMP accumulation assay; assay type: cell-based; set-up: HEK293 cells over-expressing full length human GLP-1R were utilized; expressed in transfected cells; host or cells: HEK293 (HEK293/hGLP1R); conditions: HEK293/hGLP1R cells; Table 4; read-out: cAMP EC50
Protocol: 8.1 Human GLP1R cAMP Accumulation Assay (Cyclic AMP Determination)
The functional activity of the test compounds for agonizing GLP1R were evaluated using a cell-based assay. For the assay, HEK293 cells over-expressing full length human GLP-1R were utilized and the downstream cAMP accumulation was assessed as a measure of human GLP-1R stimulation. […] Diluted compounds were transferred to OptiPlates (100 nL/well) using an Echo liquid handler. HEK293/hGLP1R cells were thawed in 37° C. water-bath, washed 2 times with HBSS and re-suspended in assay buffer (HBSS+5 mM HEPES+500 μM IBMX+0.1% BSA). […] After centrifugation, the assay plate was incubated at 23° C. for 30 min. The reaction was terminated by adding 10 μL of lysis buffer containing D2-cAMP and a cAMP-antibody from the cyclic AMP immunoassay kit (Cisbio, Cat #62AM4PEJ). […] The levels of cAMP per well were calculated using a standard curve generated by GraphPad Prism. Percent activity was calculated according to the formula (% Activity=100%*(cAMP level-LC)/(HC-LC)). EC50 values were fitted from a four-parameter logistic equation over a 10-point response curve (GraphPad Prism).

T1 sequence (P43220 24-463): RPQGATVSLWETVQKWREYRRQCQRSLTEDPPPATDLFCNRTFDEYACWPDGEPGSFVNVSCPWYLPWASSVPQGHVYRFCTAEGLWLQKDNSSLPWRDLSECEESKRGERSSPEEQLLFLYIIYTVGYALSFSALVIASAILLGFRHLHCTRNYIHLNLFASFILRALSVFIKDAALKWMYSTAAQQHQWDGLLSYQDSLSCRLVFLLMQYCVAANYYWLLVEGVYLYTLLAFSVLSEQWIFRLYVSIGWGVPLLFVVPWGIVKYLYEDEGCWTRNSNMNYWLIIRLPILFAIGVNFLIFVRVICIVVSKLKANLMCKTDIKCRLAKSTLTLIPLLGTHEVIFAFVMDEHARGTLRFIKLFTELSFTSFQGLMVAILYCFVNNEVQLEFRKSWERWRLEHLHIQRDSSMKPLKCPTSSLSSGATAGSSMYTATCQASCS

Row | S/N [2] | EC50 [2] | Relative Potency (% M2361 EC50) [2] | Relative Signal:Noise (% M2361) [2] | EC50 [3] | SMILES | S/N [1] | EC50 [1]
1 | 65.0 | 0.0316 nM | 16.8% | 98.9% | 0.136 nM | CCc1cc(OC)ccc1-c1ccc(C[C@H](NC(=O)[C@H](CC(=O)O)NC(=O)[C@H](CO)NC(=O)C(NC(=O)[C@](C)(Cc2ccccc2F)NC(=O)[C@@H](NC(=O)CNC(=O)[C@H](Cc2nn[nH]n2)NC(=O)C(C)(C)C(=O)NCCc2cnc[nH]2)[C@@H](C)O)[C@@H](C)O)C(=O)N[C@@H](CCCc2ccc(OCCCCN)cc2)C(N)=O)cc1 (stereo in doubt) [P24] | 1.0 | > 200 nM
2 | 55.3 | 0.00972 nM | 54.6% | 84.1% | 0.378 nM | CCc1cc(OCCCCNC(=O)CNC(=O)CNC(=O)CNC(=O)CNC(=O)[C@H](CO)NC(=O)CCC(=O)N2Cc3ccccc3C#Cc3ccccc32)ccc1-c1ccc(C[C@H](NC(=O)[C@H](CC(=O)O)NC(=O)[C@H](CO)NC(=O)[C@@H](NC(=O)[C@](C)(Cc2ccccc2F)NC(=O)[C@@H](NC(=O)CNC(=O)[C@H](Cc2nn[nH]n2)NC(=O)C(C)(C)C(=O)NCCc2cnc[nH]2)[C@@H](C)O)[C@@H](C)O)C(=O)N[C@@H](CCCc2cc(C)cc(C)c2)C(N)=O)cc1 [LP7, DIBAC-suc-SG4-P9] | 1.1 | > 200 nM
3 | 73.8 | 0.0174 nM | 30.5% | 112.2% | 0.078 nM | CCc1cc(OCCCCn2cc(COCCOCCOCCOCCNC(=O)OC[C@@H]3[C@@H]4CCC#CCC[C@@H]43)nn2)ccc1-c1ccc(C[C@H](NC(=O)[C@H](CC(=O)O)NC(=O)[C@H](CO)NC(=O)[C@@H](NC(=O)[C@](C)(Cc2ccccc2F)NC(=O)[C@@H](NC(=O)CNC(=O)[C@H](Cc2nn[nH]n2)NC(=O)C(C)(C)C(=O)NCCc2cnc[nH]2)[C@@H](C)O)[C@@H](C)O)C(=O)N[C@@H](CCCc2cc(C)cc(C)c2)C(N)=O)cc1 [LP9, BCN-PEG4-triazole-P8] | 1.3 | > 200 nM
4 | 62.1 | 0.0467 nM | 11.4% | 94.4% | 0.458 nM | CCc1cc(OCCCCNC(=O)CNC(=O)CNC(=O)CNC(=O)CNC(=O)[C@H](CO[C@@H]2O[C@H](CO)[C@@H](O)[C@H](O)[C@H]2O)NC(=O)CCNC(=O)OC[C@@H]2[C@@H]3CCC#CCC[C@@H]32)ccc1-c1ccc(C[C@H](NC(=O)[C@H](CC(=O)O)NC(=O)[C@H](CO)NC(=O)[C@@H](NC(=O)[C@](C)(Cc2ccccc2F)NC(=O)[C@@H](NC(=O)CNC(=O)[C@H](Cc2nn[nH]n2)NC(=O)C(C)(C)C(=O)NCCc2cnc[nH]2)[C@@H](C)O)[C@@H](C)O)C(=O)N[C@@H](CCCc2cc(C)cc(C)c2)C(N)=O)cc1 [LP18, BCN NHC2 H4CO (glucose) SG4-P9] | 1.1 | > 200 nM
5 | 50.6 | 0.127 nM | 4.2% | 76.9% | 0.115 nM | CCc1cc(OCCCCN)ccc1-c1ccc(C[C@H](NC(=O)[C@H](CC(=O)O)NC(=O)[C@H](CO)NC(=O)[C@@H](NC(=O)[C@](C)(Cc2ccccc2F)NC(=O)[C@@H](NC(=O)CNC(=O)[C@H](Cc2nn[nH]n2)NC(=O)C(C)(C)C(=O)NO)[C@@H](C)O)[C@@H](C)O)C(=O)N[C@@H](CCCc2cc(C)cc(C)c2)C(N)=O)cc1 [P5] (X6-[Ala(1H-tetrazol-5-yl)]GT[αMePhe(2-F)]TSD[Bip(2'-Et,4'-O(CH2)4NH2)][Nva(5-(3,5-Me2Ph))]-NH2) | 1.3 | > 200 nM
6 | 48.4 | 1.89 nM | 0.3% | 73.6% | 2.06 nM | CCc1cc(OCCCCN)ccc1-c1ccc(C[C@H](NC(=O)[C@H](CC(=O)O)NC(=O)[C@H](CO)NC(=O)[C@@H](NC(=O)[C@](C)(Cc2ccccc2F)NC(=O)[C@@H](NC(=O)CNC(=O)[C@H](Cc2nn[nH]n2)NC(=O)[C@@H](N)CO)[C@@H](C)O)[C@@H](C)O)C(=O)N[C@@H](CCCc2cc(C)cc(C)c2)C(N)=O)cc1 [P7] (H-S[Ala(1H-tetrazol-5-yl)]GT[αMePhe(2-F)]TSD[Bip(2'-Et,4'-O(CH2)4NH2)][Nva(5-(3,5-Me2Ph))]-NH2) | 1.0 | > 200 nM
7 | 68.2 | 0.0613 nM | 8.7% | 103.6% | 0.37 nM | CCc1cc(OCCCCN)ccc1-c1ccc(C[C@H](NC(=O)[C@H](CC(=O)O)NC(=O)[C@H](CO)NC(=O)[C@@H](NC(=O)[C@](C)(Cc2ccccc2F)NC(=O)[C@@H](NC(=O)CNC(=O)[C@H](Cc2nn[nH]n2)NC(=O)[C@H](C)NC(=O)[C@@H](N)Cc2ccc(O)cc2)[C@@H](C)O)[C@@H](C)O)C(=O)N[C@@H](CCCc2cc(C)cc(C)c2)C(N)=O)cc1 [P18] | 1.4 | > 200 nM

Row | SMILES | S/N [2] | EC50 [2] | Relative Potency (% M2361 EC50) [2] | Relative Signal:Noise (% M2361) [2] | EC50 [3] | S/N [1] | EC50 [1]
8 | CCc1cc(OCCCCNC(=O)OCCOCCOCCOCCNC(=O)OC[C@@H]2[C@@H]3CCC#CCC[C@@H]32)ccc1-c1ccc(C[C@H](NC(=O)[C@H](CC(=O)O)NC(=O)[C@H](CO)NC(=O)[C@@H](NC(=O)[C@](C)(Cc2ccccc2F)NC(=O)[C@@H](NC(=O)CNC(=O)[C@H](Cc2nn[nH]n2)NC(=O)C(C)(C)C(=O)NCCc2cnc[nH]2)[C@@H](C)O)[C@@H](C)O)C(=O)N[C@@H](CCCc2cc(C)cc(C)c2)C(N)=O)cc1 [LP5, BCN-PEG4-carba-mate P9] ({Malonyl(2,2-Me2,histaminyl)}-[Ala(1H-tetrazol-5-yl)]GT[αMePhe(2-F)]TSD[Bip(2'-Et-4'-O(CH2)4NH2)](X7)[Nva(5-(3,5-Me2Ph))]-NH2) | 54.8 | 0.0242 nM | 21.9% | 83.4% | 0.044 nM | 1.8 | > 200 nM
9 | CCc1cc(OCCCCNC(=O)[C@H](CO)NC(=O)CNC(=O)CNC(=O)CNC(=O)CNC(=O)CCC(=O)N2Cc3ccccc3C#Cc3ccccc32)ccc1-c1ccc(C[C@H](NC(=O)[C@H](CC(=O)O)NC(=O)[C@H](CO)NC(=O)[C@@H](NC(=O)[C@](C)(Cc2ccccc2F)NC(=O)[C@@H](NC(=O)CNC(=O)[C@H](Cc2nn[nH]n2)NC(=O)C(C)(C)C(=O)NCCc2cnc[nH]2)[C@@H](C)O)[C@@H](C)O)C(=O)N[C@@H](CCCc2cc(C)cc(C)c2)C(N)=O)cc1 [LP6, DIBAC- suc-G4S- P9] | 65.7 | 0.0251 nM | 21.2% | 99.9% | 0.436 nM | 1.4 | > 200 nM
10 | CCc1cc(OCCCCNC(=O)[C@H](CO)NC(=O)CNC(=O)CNC(=O)CNC(=O)CNC(=O)CCC(=O)N2Cc3ccccc3C#Cc3ccccc32)ccc1-c1ccc(C[C@H](NC(=O)[C@H](CC(=O)O)NC(=O)[C@H](CO)NC(=O)[C@@H](NC(=O)[C@](C)(Cc2ccccc2F)NC(=O)[C@@H](NC(=O)CNC(=O)[C@H](Cc2nn[nH]n2)NC(=O)C(C)(C)C(=O)NCCc2cnc[nH]2)[C@@H](C)O)[C@@H](C)O)C(=O)N[C@@H](CCCc2cc(C)cc(C)c2)C(=O)Nc2ccccc2)cc1 [LP15, DIBAC- suc-G4S- P23] | 48.1 | 0.0704 nM | 7.5% | 73.2% | 0.649 nM | 1.5 | > 200 nM
